In patent US20150329821A1, “METHODS OF DIFFERENTIATING STEM CELLS INTO ONE OR MORE CELL LINEAGES” (AGENCY FOR SCIENCE, TECHNOLOGY AND RESEARCH, priority 2012, published 2015):

B1: noggin: inhibitor of BMP signaling (protein, UniProt Q13253 28-232, looked up)
Noggin: QHYLHIRPAPSDNLPLVDLIEHPDPIFDPKEKDLNETLLRSLLGGHYDPGFMATSPPEDRPGGGGGAAGGAEDLAELDQLLRQRPSGAMPSEIKGLEFSEGLAQGKKQRLSKKLRRKLQMWLWSQTFCPVLYAWNDLGSRFWPRYVKVGSCFSKRSCSVPEGMVCKPSKSVHLTVLRWRCQRRGGQRCGWIPIQYPIISECKCSC
B2: Dkk1: inhibitor of Wnt signaling (protein, UniProt O94907 32-266, looked up)
Dickkopf-related protein 1: TLNSVLNSNAIKNLPPPLGGAAGHPGSAVSAAPGILYPGGNKYQTIDNYQPYPCAEDEECGTDEYCASPTRGGDAGVQICLACRKRRKRCMRHAMCCPGNYCKNGICVSSDQNHFRGEIEETITESFGNDHSTLDGYSRRTTLSSKMYHTKGQEGSVCLRSSDCASGLCCARHFWSKICKPVLKEGQVCTKHRRKGSHGLEIFQRCYCGEGLSCRIQKDHHQASNSSRLHTCQRH

Tested on: hESC
Test: qPCR of DE vs. mesoderm emergence from primitive streak under signaling perturbations
Type: cell-based, human
Details: for downregulation of MESP1: neutralizing endogenous BMP on days 2-3, PS to DE, 2 hESC lines; for mesoderm formation from PS: inhibiting endogenous Wnt on days 2-3
Method: RNA was harvested from adherent cells grown in individual wells of a 12-well plate by the addition of 350 μL of RLT Buffer for several minutes. RNA could be indefinitely frozen at −80° C. or could be directly extracted. RNA extraction was conducted with the RNeasy Micro Kit (Qiagen) generally as per the manufacturer's recommendations with an intermediate 1 hour on-column DNase digestion to eliminate residual genomic DNA, and RNA was finally eluted from the column in 30 μL H20. After assessment of total RNA concentration, generally 100-500 ng of total RNA was used for reverse transcription (Superscript Reverse Transcriptase, Invitrogen) as per the manufacturer's instructions. Finally, cDNA was diluted 1:30 in H2O and was used for qPCR in 384-well high-throughput format. For each individual qPCR reaction per′ well (10 μL), 5 μL of 2×SYBR Green Master Mix (Applied Biosystems) was used and combined with 0.4 μL of combined forward and reverse primer mix (at 10 μM of forward+reverse primers in the combined primer mix). qPCR was conducted for 40 cycles at Tm=60° C., and a dissociation curve was generated at the end of the reaction to ensure only one product was specifically amplified per primer pair. qPCR analysis was conducted by the ddCt method: for each cDNA sample, the expression of experimental genes was internally normalized to the expression of a human housekeeping gene (Pbgd) for that same cDNA sample, and afterwards, expression of experimental genes could be determined between different cDNA samples. For all differentiated populations, expression of experimental genes was compared to undifferentiated hESCs plated for the same experimental set to ensure that any perceived increase or decrease of gene expression was significant relative to the ab initio expression of that gene in undifferentiated hESCs. Thus, for all qPCR data both in matrices […] and histograms (FIG. 39-65) all gene expression is normalized such that the level of gene expression (e.g., for SOX17) in hESCs=1. For each experiment, at least two distinct wells per, condition were harvested, and for each well, 2 or 3 technical replicates were performed for each gene whose expression was analyzed by qPCR.
To deduce the developmental signaling logic underlying cell-fate bifurcations, signaling-perturbation matrices (FIG. 1-23) were generated to visually represent qPCR data of developmental gene expression (rows) in response to various signaling-perturbations (columns). Signaling-perturbation matrices were generated using GenePattern's HeatMapViewer module (http://genepattern.broadinstitute.org), using as input data matrices of signaling-perturbation qPCR responses that were normalized to levels of developmental gene expression in undifferentiated hESC as described above. In HeatMapViewer, gene expression values are linearly transformed into colors (as indicated by the color legend below each matrix) in which no color represents low gene expression, stronger color represents higher gene expression and the strongest shade of color is equivalent to the highest level of the gene that was expressed in all signaling-perturbations tested in that matrix.

Molecule | downregulation of MESP1 | mesoderm formation from PS
Cl.c1ccc2c(-c3cnn4cc(-c5ccc(N6CCNCC6)cc5)cnc34)ccnc2c1 [DM3189/LDN-193189, 4-(6-(4-(piperazin-1-yl)phenyl)pyrazolo[1,5-a]pyrimidin-3-yl)quinoline hydrochloride] | ~3000 fold | 
Cc1ccc2nc(NC(=O)CSc3nc4c(c(=O)n3-c3ccccc3)SCC4)sc2c1 [IWP2, N-(6-Methyl-2-benzothiazolyl)-2-[(3,4,6,7-tetrahydro-4-oxo-3-phenylthieno[3,2-d]pyrimidin-2-yl)thio]-acetamide] |  | blocked mesoderm formation
O=c1[nH]c(-c2ccc(C(F)(F)F)cc2)nc2c1CSCC2 [XAV939, 3,5,7,8-Tetrahydro-2-[4-(trifluoromethyl)phenyl]-4H-thiopyrano[4,3-d]pyrimidin-4-one] |  | blocked mesoderm formation
B1 | ~3000 fold | 
B2 |  | blocked mesoderm formation
